Data set [1] concerns paw swelling induced by carrageenin. The data set is described as follows: Paw swelling induced by carrageenin in rat. The data set is classed as in vivo, SD rats. The note with it: 0.25 g/kg p.o. 3 days. The method, then:
A total of 50 SD rats weighing 100-120g with equal sex distribution were randomly divided into 5 groups. The rats were treated p.o. with different doses of AHT-323, tragacanth, or aspirin once daily for 3 days. One hour later, rats were given subcutaneously injections with 0.05 ml of carrageenin (1%) in the right paw of each rat. The degree of paw swelling was measured using the drainage method before and 1, 3, 4, 5, and 6 h after injection of the carrageenin.

Data set [2] concerns peritoneal macrophage. Put plainly: CRBC phagocytosis of peritoneal macrophage of mice. The data set is classed as in vivo. The note with it: 0.005 g/kg p.o. once daily 7 days. How it is done: Totals of 50 NIH mice weighing 18-22 g with equal sex distribution were randomly divided into 5 groups. The mice were treated p.o. with different doses of AHT-323 or other positive control drug once daily for 7 days. 1 h after the last dose, mice were injected i.p. with 0.2 ml […] of chick (10%). 4 h later, mice were sacrificed and the peritoneal fluid was obtained. Under microscope, the amount of macrophage that phagocytosed CRBC and the amount of CRBC phagocytosed by each macrophage were counted.

Data set [3] concerns WBC of pleura. The data set is described as follows: Migration of inflammatory cells of pleura (Fucus siliquosus glue). The data set is classed as in vivo, NIH mice. The note with it: 0.05 g/kg. The method, then: A total of 50 NIH mice were randomly divided into five groups. 0.5% Evans blue saline was injected into caudal vein at 0.1 ml/10 g body weight. Then mice were lightly anesthetized with ether and injected with 0.03 ml of Fucus siliquosus glue into right thoracic cavity to induce inflammation. 4 h and 32 h after inflammation induction, the mice were sacrificed and 2 ml of thoracic cavity wash liquid was collected and used to count the WBC and measure the optical density (OD) at 600 nm. […] The regression equation on 4 h was y=44.13-2.01x, r=0.9625.

Data set [4] relates to ear swelling induced by croton oil. Put plainly: Ear swelling induced by croton oil. The format is in vivo, NIH mice. The note with it: 0.003 g/kg p.o. once daily 3 days. How it is done: A total of 60 NIH mice weighing 18-22 g with equal sex distribution were randomly divided into 6 groups. The mice were treated p.o. with different doses of AHT-323, tragacanth, or DXM once daily for 3 days. One hour after the last administration, 0.02 ml croton oil (2%) was pasted around the left auricle. Four hours later, mice were sacrificed by dislocating cervical vertebrae. The right and left ears were cut off and weighed to get the differences in the degree of ear swelling.

For data set [5], the system named is cotton granuloma. The data set is described as follows: Cotton granuloma and organ weights. The data set is classed as in vivo, SD rats. Particulars: 0.05 g/kg p.o. once daily 7 days. The method, then: 150 SD rats weighing 150-180 g with equal sex distribution were randomly divided into 15 groups. After light anesthesia with ether, an aseptic cotton ball (10 mg) was implanted into each armpit. On that day, rats were administered p.o. with different doses of AHT-323 or DXM once daily for 7 days. Twenty four hours after the last drug administration, the rats were sacrificed and the cotton balled granuloma were removed. The wet and dry weight of the granuloma, and other organs were obtained.

Data set [6] deals with adjuvant arthritis (AA) rats. Put plainly: Prophylactic effect on rat adjuvant arthritis (paw and ankle swelling). The format is in vivo, SD rats. Particulars: 0.01 g/kg p.o. The method, then:
The study was conducted in adjuvant arthritis (AA) rats, an experimental model for human rheumatoid arthritis.
(§1) In the study, 60 male SD rats weighing 180-220 g were used and randomly divided into 5 groups, including three test groups, one negative and one positive control groups. The rats were given p.o. three different dosages of AHT-323, tragacanth, or prednisone, respectively, once daily for 4 consecutive weeks. 0.1 ml of Freund's Complete Adjuvant (FCA) was also injected intradermally into the plantar of left hind paw of rats […]. Each day, the maximal circumference of both left and right paw and ankle joint were measured, and the swelling degrees (mm) were calculated to determine the AHT-323 on both primary and secondary injury. The primary injury occurs at the homolateral joints of the adjuvant injection and is resulted from direct, non-specific inflammatory reaction of the body to adjuvant. Whereas the secondary injury occurs at the contralateral joints of the adjuvant injection in about two weeks after adjuvant injection and is related to auto-immune responses induced by adjuvant injection. The pathological changes of human rheumatoid arthritis is similar to that of the secondary injury in AA rats.

The subject of data set [7] is adjuvant arthritis (AA) rats. Put plainly: Therapeutic effect on adjuvant arthritis rats (swelling). The format is in vivo, SD rats. Particulars: 0.01 g/kg. How it is done: as §1
Totals of 50 male SD rats were divided into 5 groups with the same treatment as experiments described in section 3.3.1 except that the AHT-323 was given p.o. from d13˜d28 once daily for 2 weeks, (from the thirteenth day after injection of Freund's Complete Adjuvant).

For data set [8], the system named is T cells of AA mice. The data set is described as follows: T cells of AA mice (esterase stain, flow cytometry). The format is in vivo, NIH mice. The note with it: 0.012 g/kg. The method, then:
A total of 60 NIH mice weighing 20±2 g were randomly divided into 6 groups, among which four groups were injected intradermially with 0.05 ml FCA to induce AA model mice. The negative control group was injected intradermially with 0.05ml saline. The rats in AHT-323 test groups were administrated orally with AHT-323 once daily for consecutive five days. Five days later, peripheral blood was drawn from mice in all groups and stained with esterase. The percent of T cells (positive esterase stained cells) was calculated.
The above mice were anesthetized and spleens were removed and made into splenocytes suspension. CD4^+ T cells and CD8^+ T cells were assayed with flow cytometry and CD4^+/CD8^+ was calculated.

`CC(=O)Oc1ccccc1C(=O)O` [Aspirin, aspirin]: the “Paw swelling rate (%)” value in data set [1] (1 h) is reported as 6.3 ± 4.1 %; in data set [1] (3 h) it was 11.1 ± 6.3 %; in data set [1] (4 h) it was 17.9 ± 7.6 %; in data set [1] (5 h), 18.1 ± 7.0 %; in data set [1] (6 h) it was 20.6 ± 6.0 %.

For `C[C@@H]1C[C@H]2[C@@H]3CCC4=CC(=O)C=C[C@]4(C)[C@@]3(F)[C@@H](O)C[C@]2(C)[C@@]1(O)C(=O)CO` [DXM, dexamethasone], in data set [2], the Phagocytic index was 1.10 ± 0.18 and the “Phagocytic percent (%)” value is 8.33 ± 10.13 %. The WBC count in data set [3] (4 h after inflammation induction) was determined as 12.7 ± 10.2. In data set [3] (32 h), this molecule yielded a WBC count of 4.4 ± 4.0. Besides, the “Swelling degree” value in data set [4] was 14.13 ± 5.75 mg. For the same molecule, the inhibition – broadly, the change of the read-out against control, counted positive when it falls – at 3 mg/kg in data set [4] (Mus musculus, po, 72 h, read-out: Inhibition rate) is 68.2%. Further, in data set [5], the “Granuloma Wt. Dry Wt.” value is 77 ± 17 mg/100 g, the “Granuloma Wt. Wet Wt.” value worked out at 346 ± 92 mg/100 g, the “Weight of organs: Adrenal” value came out at 17 ± 5 mg/100 g and the “Weight of organs: Spleen” value worked out at 412 ± 173 mg/100 g. In data set [5], the “Weight of organs: Thymus” value worked out at 38 ± 13 mg/100 g and the “Weight of organs: uterus” value came to 126 ± 33 mg/100 g.

Take `C[C@]12C=CC(=O)C=C1CC[C@@H]1[C@@H]2C(=O)C[C@@]2(C)[C@H]1CC[C@]2(O)C(=O)CO` [Prednisone, prednisone]: the Swelling degree in data set [6] (primary injury, 2nd block col 1 (day not given)) amounted to 1.18 ± 0.76 cm; in data set [6] (primary injury, 2nd block col 2 (day not given)), 1.03 ± 0.67 cm; in data set [6] (primary injury, 2nd block col 3 (day not given)), 1.05 ± 0.69 cm; in data set [6] (primary injury, 2nd block col 4 (day not given)), 0.90 ± 0.64 cm; in data set [6] (primary injury, 2nd block col 5 (day not given)), 0.86 ± 0.65 cm; in data set [6] (primary injury, 2nd block col 6 (day not given)) it was 0.85 ± 0.59 cm. In addition, the Swelling degree is given as 0.64 ± 0.14 cm in data set [6] (primary injury, d1); 0.64 ± 0.16 cm in data set [6] (primary injury, d2); 0.50 ± 0.26 cm in data set [6] (primary injury, d3); 0.46 ± 0.25 cm in data set [6] (primary injury, d9); 0.72 ± 0.46 cm in data set [6] (primary injury, d12); 0.87 ± 0.46 cm in data set [6] (primary injury, d14). In addition, the Swelling degree in data set [6] (primary injury, d16) was determined as 1.28 ± 0.69 cm; in data set [6] (secondary injury, 2nd block col 1 (day not given)), 0.78 ± 0.70 cm; in data set [6] (secondary injury, 2nd block col 2 (day not given)) it was 0.72 ± 0.71 cm; in data set [6] (secondary injury, 2nd block col 3 (day not given)), 0.67 ± 0.64 cm; in data set [6] (secondary injury, 2nd block col 4 (day not given)), 0.62 ± 0.61 cm; in data set [6] (secondary injury, 2nd block col 5 (day not given)), 0.65 ± 0.64 cm. Besides, the Swelling degree came to 0.038 ± 0.048 cm in data set [6] (secondary injury, D9); 0.016 ± 0.039 cm in data set [6] (secondary injury, d2); 0.14 ± 0.14 cm in data set [6] (secondary injury, d12); 0.38 ± 0.39 cm in data set [6] (secondary injury, d14); 0.92 ± 0.62 cm in data set [6] (secondary injury, d16); 0.78 ± 0.71 cm in data set [6] (secondary injury, d18). The Swelling degree was determined as 1.78 ± 0.51 cm in data set [7] (primary injury, therapeutic (p.o. d13˜d28), D1); 1.70 ± 0.51 cm in data set [7] (primary injury, therapeutic (p.o. d13˜d28), d2); 1.63 ± 0.50 cm in data set [7] (primary injury, therapeutic (p.o. d13˜d28), d4); 1.58 ± 0.50 cm in data set [7] (primary injury, therapeutic (p.o. d13˜d28), d6); 1.27 ± 0.46 cm in data set [7] (primary injury, therapeutic, 2nd block col 1 (day not given)); 1.09 ± 0.54 cm in data set [7] (primary injury, therapeutic, 2nd block col 2 (day not given)). Also, the Swelling degree is 0.94 ± 0.50 cm in data set [7] (primary injury, therapeutic, 2nd block col 3 (day not given)); 0.94 ± 0.42 cm in data set [7] (primary injury, therapeutic, 2nd block col 4 (day not given)); 1.08 ± 00.41 cm in data set [7] (secondary injury, therapeutic (p.o. d13˜d28), D1); 1.18 ± 00.44 cm in data set [7] (secondary injury, therapeutic (p.o. d13˜d28), d2); 1.23 ± 00.42 cm in data set [7] (secondary injury, therapeutic (p.o. d13˜d28), d4); 1.19 ± 00.38 cm in data set [7] (secondary injury, therapeutic (p.o. d13˜d28), d6). In addition, the Swelling degree turned out to be 0.88 ± 00.47 cm in data set [7] (secondary injury, therapeutic, 2nd block col 1 (day not given)); 0.95 ± 00.43 cm in data set [7] (secondary injury, therapeutic, 2nd block col 2 (day not given)); 0.82 ± 00.48 cm in data set [7] (secondary injury, therapeutic, 2nd block col 3 (day not given)); 0.75 ± 00.37 cm in data set [7] (secondary injury, therapeutic, 2nd block col 4 (day not given)).

Turning to `CC(=O)OC[C@]12[C@H](OC(C)=O)[C@H](OC(C)=O)[C@@H]3[C@@H](OC(C)=O)[C@@]14O[C@@]3(C)COC(=O)c1cccnc1CCC(C)(O)C(=O)O[C@@H]([C@H](OC(=O)c1ccccc1)[C@@H]2OC(C)=O)[C@]4(C)O` (stereo partly shown) [Wilfordine], the “CD4^+/CD8^+” value in data set [8] was determined as 1.70 ± 0.03. Moreover, the “ANAE^+ (%)” value in data set [8] (peripheral blood) amounted to 48.88 ± 2.89%. Moreover, in data set [8] (splenocytes), the “CD4^+ (%)” value was determined as 27.88 ± 1.99 % and the “CD8^+ (%)” value is on record as 16.33 ± 1.31 %.

The values are drawn from patent US20030008024A1, “Therapeutic composition of herbal extracts and the uses thereof” (Advanced Herbal Therapeutics, Inc., priority 2001, published 2003).
